Assay results from the supplement of paper PMC3770661.
Counter-ions that a name gives are not always drawn. ± gives the uncertainty stated by the source.

System: HepG2 (L1.3 5'UTR promoter firefly luciferase reporter)
Assay: L1 promoter activity (FLuc/RLuc) relative to DMSO vehicle control (% of control); higher = stronger L1 promoter activation
Experimental: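 HepG2 cells in 96-well plates were cotransfected with pGL4.11-L1.3 5'UTR (firefly luciferase driven by the human L1.3 5'UTR promoter) and pGL4.74 (HSV-TK Renilla luciferase internal control), then treated with compound for 6 or 24 h. FLuc/RLuc ratio was normalised to the DMSO vehicle control (% of control); concentrations where RLuc fell below 50% of control were excluded (N.D.). Mean of at least two independent experiments in duplicate or quadruplicate.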

[1] = concentration (uM unless unit written): 500, treatment time: 6 h
[2] = concentration (uM unless unit written): 1000, treatment time: 6 h
[3] = concentration (uM unless unit written): 2500, treatment time: 6 h
[4] = concentration (uM unless unit written): 25, treatment time: 6 h
[5] = concentration (uM unless unit written): 25, treatment time: 24 h
[6] = concentration (uM unless unit written): 50, treatment time: 6 h
[7] = concentration (uM unless unit written): 50, treatment time: 24 h
[8] = concentration (uM unless unit written): 100, treatment time: 6 h
[9] = concentration (uM unless unit written): 10, treatment time: 6 h
[10] = concentration (uM unless unit written): 1, treatment time: 6 h
[11] = concentration (uM unless unit written): 1, treatment time: 24 h
[12] = concentration (uM unless unit written): 3, treatment time: 6 h
[13] = concentration (uM unless unit written): 3, treatment time: 24 h
[14] = concentration (uM unless unit written): 250, treatment time: 6 h
[15] = concentration (uM unless unit written): 5, treatment time: 6 h
[16] = concentration (uM unless unit written): 5, treatment time: 24 h
[17] = concentration (uM unless unit written): 10, treatment time: 24 h
[18] = concentration (uM unless unit written): 100, treatment time: 24 h

How did the L1 promoter activity (concentration (uM unless unit written): 0.75, treatment time: 6 h) turn out when CC[C@H]1/C=C/C=C/C[C@@H](C)[C@H](O)[C@@](C)(O)C(=O)[C@@H](C)[C@H](O)[C@@H](C)C(=O)[C@@H](C)[C@H](O)[C@@H](C)/C=C/C(=O)O[C@@H]2[C@H](C)[C@H](CC1)O[C@]1(CC[C@H](C)[C@H](C[C@@H](C)O)O1)[C@H]2C [Oligomycin] was run?
Its L1 promoter activity is 89.6 ± 5.8.

What about the L1 promoter activity (concentration (uM unless unit written): 0.75, treatment time: 24 h) of the same molecule?
Its L1 promoter activity is 82.1 ± 19.

What about the L1 promoter activity (concentration (uM unless unit written): 1.5, treatment time: 6 h) of the same molecule?
The L1 promoter activity was 82.5 ± 15.

What about the L1 promoter activity (concentration (uM unless unit written): 1.5, treatment time: 24 h) of the same molecule?
The L1 promoter activity was 77.2 ± 1.9.

Which L1 promoter activity [1] does the source give for CC(C)=CC(=O)C=C(C)C [Phorone] here?
The L1 promoter activity was 131 ± 16.

And the L1 promoter activity (concentration (uM unless unit written): 500, treatment time: 24 h)?
Its L1 promoter activity is 118 ± 21.

And the L1 promoter activity [2]?
Its L1 promoter activity is 131 ± 6.7.

What about the L1 promoter activity (concentration (uM unless unit written): 1000, treatment time: 24 h) of the same molecule?
Its L1 promoter activity is 118 ± 23.

What does the source list for CC[C@H](C)C(=O)O[C@H]1C[C@H](O)C=C2C=C[C@H](C)[C@H](CC[C@@H](O)C[C@@H](O)CC(=O)O)[C@H]21 [Pravastatin]?
L1 promoter activity [3]: 130 ± 8.2; L1 promoter activity (concentration (uM unless unit written): 2500, treatment time: 24 h): 102 ± 7.9

What does the source list for CC(=O)[C@H]1CC[C@H]2[C@@H]3CCC4=CC(=O)CC[C@]4(C)[C@H]3CC[C@]12C [Progesterone]?
L1 promoter activity [4]: 101 ± 7.1; L1 promoter activity [5]: 81.7 ± 12; L1 promoter activity [6]: 90.4 ± 15; L1 promoter activity [7]: 67.8 ± 7.1; L1 promoter activity [8]: 73.7 ± 6.7

How did the L1 promoter activity [6] turn out when CC(CN1c2ccccc2Sc2ccccc21)N(C)C (stereo not given) [Promethazine hydrochloride] was run?
The L1 promoter activity was 73.9 ± 13.

What does the source list for C=C(C)[C@H]1Cc2c(ccc3c2O[C@@H]2COc4cc(OC)c(OC)cc4[C@@H]2C3=O)O1 [Rotenone]?
L1 promoter activity (concentration (uM unless unit written): 0.075, treatment time: 6 h): 113 ± 28; L1 promoter activity (concentration (uM unless unit written): 0.075, treatment time: 24 h): 90.8 ± 3.4; L1 promoter activity [9]: 97.8 ± 8.2; L1 promoter activity [6]: 93.6 ± 11

Which results are given for NC(=O)c1ccccc1O [Salicylamide]?
L1 promoter activity (concentration (uM unless unit written): 1250, treatment time: 6 h): 146 ± 22; L1 promoter activity (concentration (uM unless unit written): 1250, treatment time: 24 h): 175 ± 16; L1 promoter activity [3]: 139 ± 9.1; L1 promoter activity (concentration (uM unless unit written): 5000, treatment time: 6 h): 151 ± 25

CCC(C)(C)C(=O)O[C@H]1C[C@@H](C)C=C2C=C[C@H](C)[C@H](CC[C@@H]3C[C@@H](O)CC(=O)O3)[C@H]21 [Simvastatin] was tested. Which L1 promoter activity [10] did it give?
The L1 promoter activity was 94.1 ± 18.

And the L1 promoter activity [11]?
The L1 promoter activity was 100 ± 12.

What about the L1 promoter activity [12] of the same molecule?
Its L1 promoter activity is 93.1 ± 7.7.

What about the L1 promoter activity [13] of the same molecule?
The L1 promoter activity was 117 ± 14.

What about the L1 promoter activity (concentration (uM unless unit written): 6, treatment time: 6 h) of the same molecule?
Its L1 promoter activity is 108 ± 18.

And the L1 promoter activity (concentration (uM unless unit written): 6, treatment time: 24 h)?
Its L1 promoter activity is 107 ± 15.

CC(=O)S[C@@H]1CC2=CC(=O)CC[C@]2(C)[C@H]2CC[C@@]3(C)[C@@H](CC[C@@]34CCC(=O)O4)[C@H]12 [Spironolactone] was tested. Which L1 promoter activity [10] did it give?
The L1 promoter activity was 104 ± 9.8.

What about the L1 promoter activity [11] of the same molecule?
Its L1 promoter activity is 89.3 ± 3.8.

And the L1 promoter activity [12]?
Its L1 promoter activity is 97.8 ± 9.3.

And the L1 promoter activity [13]?
Its L1 promoter activity is 100 ± 8.9.

And the L1 promoter activity (concentration (uM unless unit written): 30, treatment time: 6 h)?
Its L1 promoter activity is 88.5 ± 9.3.

And the L1 promoter activity (concentration (uM unless unit written): 30, treatment time: 24 h)?
The L1 promoter activity was 111 ± 12.

For CC1=C(CC(=O)O)c2cc(F)ccc2/C1=C\c1ccc([S+](C)[O-])cc1 (stereo not given) [Sulindac], which L1 promoter activity [14] is on record?
Its L1 promoter activity is 218 ± 44.

What does the source list for CC(=O)O[C@H]1C(=O)[C@@]2(C)[C@H]([C@H](OC(=O)c3ccccc3)[C@]3(O)C[C@H](OC(=O)[C@H](O)[C@@H](NC(=O)c4ccccc4)c4ccccc4)C(C)=C1C3(C)C)[C@]1(OC(C)=O)CO[C@@H]1C[C@@H]2O [Taxol]?
L1 promoter activity [15]: 104 ± 17; L1 promoter activity [16]: 86.9 ± 18; L1 promoter activity [9]: 123 ± 35; L1 promoter activity [17]: 81.9 ± 11; L1 promoter activity (concentration (uM unless unit written): 20, treatment time: 6 h): 96.8 ± 14; L1 promoter activity (concentration (uM unless unit written): 20, treatment time: 24 h): 76.3 ± 13

How did the L1 promoter activity (concentration (uM unless unit written): 1.25, treatment time: 6 h) turn out when CCCc1nc2c(C)cc(-c3nc4ccccc4n3C)cc2n1Cc1ccc(-c2ccccc2C(=O)O)cc1 [Telmisartan] was run?
The L1 promoter activity was 104 ± 11.

And the L1 promoter activity (concentration (uM unless unit written): 1.25, treatment time: 24 h)?
The L1 promoter activity was 112 ± 8.

And the L1 promoter activity (concentration (uM unless unit written): 2.5, treatment time: 6 h)?
The L1 promoter activity was 105 ± 8.6.

What about the L1 promoter activity (concentration (uM unless unit written): 2.5, treatment time: 24 h) of the same molecule?
Its L1 promoter activity is 114 ± 9.7.

And the L1 promoter activity [15]?
Its L1 promoter activity is 115 ± 3.5.

What about the L1 promoter activity [16] of the same molecule?
The L1 promoter activity was 114 ± 9.

And the L1 promoter activity [9]?
The L1 promoter activity was 119 ± 15.

And the L1 promoter activity [17]?
The L1 promoter activity was 119 ± 3.6.

For Clc1ccccc1CN1CCc2sccc2C1 [Ticlopidine], which L1 promoter activity [9] is on record?
The L1 promoter activity was 117 ± 5.9.

And the L1 promoter activity [17]?
Its L1 promoter activity is 124 ± 4.8.

And the L1 promoter activity [4]?
The L1 promoter activity was 107 ± 9.2.

And the L1 promoter activity [5]?
Its L1 promoter activity is 104 ± 9.1.

And the L1 promoter activity [6]?
Its L1 promoter activity is 96.2 ± 12.

And the L1 promoter activity [7]?
Its L1 promoter activity is 113 ± 22.

And the L1 promoter activity [8]?
Its L1 promoter activity is 97.5 ± 13.

And the L1 promoter activity [18]?
The L1 promoter activity was 129 ± 11.

NS(=O)(=O)c1cc2c(cc1Cl)NC(C(Cl)Cl)NS2(=O)=O (stereo not given) [Trichlormethiazide] was tested. Which L1 promoter activity [8] did it give?
The L1 promoter activity was 103 ± 10.

And the L1 promoter activity [18]?
Its L1 promoter activity is 66.9 ± 13.

What about the L1 promoter activity [14] of the same molecule?
The L1 promoter activity was 108 ± 17.

What about the L1 promoter activity (concentration (uM unless unit written): 250, treatment time: 24 h) of the same molecule?
Its L1 promoter activity is 59.6 ± 9.6.

And the L1 promoter activity [1]?
The L1 promoter activity was 102 ± 6.6.

And the L1 promoter activity [2]?
The L1 promoter activity was 99.7 ± 27.
